# Read-outs that look alike come from different tables or passages of the source.
# How the values were obtained:
# [1] = tested on: HepG2 cells, non-targeting control shRNA; assay: Cell viability, HepG2 control shRNA; type: cell-based
# Experimental: (§1) Colo-205 (ATCC, catalog #CCL-222), HepG2 (ATCC, catalog #HB-8065), CFPAC1 (ATCC, catalog #CRL-1918), or DU4475 (ATCC, catalog #HTB-123) cells are plated in 10 mL of complete DMEM cell culture media [DMEM (Life Technologies, product #11960-051) media supplemented with 10% FBS (Hyclone, catalog #SH30071.03), antimycotic/antibiotic (Life Technologies, product #15240-062), and Glutamax (Life Technologies, product #35050-061)] at 3×10^6 cells per 10 cm cell culture plate (Corning, product #430167). Cells are allowed to attach and grow overnight at 37° C. in humidified 5% CO2. Cells are transduced by addition of 1×10^6 infectious units of lentivirus encoding WFS1 shRNA (Santa Cruz Biotech, catalog #sc-61804-V) or a non-targeting control shRNA (Santa Cruz Biotech, catalog #sc-108080) and 10 ug/ml of Polybrene® (Santa Cruz Biotech, catalog #sc-134220) to the cell culture media. After 48 hours transduced cells are selected by the addition of 1 microgram/mL of puromycin (Life Technologies, catalog #A1113803) to the cell culture media.
# lung PDX models = assay: Response of lung PDX models with highest and lowest WFS1 gene expression; type: in vivo; conditions: 10 highest and 10 lowest WFS1 expressing lung PDX models
# Text: Finally, an in vivo study was run to evaluate the relationship between WFS1 expression in patient derived xenografts (PDX). To do this, the 10 lung PDX models with the highest WFS1 gene expression and the 10 lung PDX models with the lowest WFS1 gene expression were selected from the Oncotest compendium.
# [2] = tested on: DU4475 cells, shRNA targeting WFS1; assay: Cell viability, DU4475 WFS1 shRNA; type: cell-based
# Experimental: as §1
# Colo-205 Control shRNA = assay: TCF reporter activity, Colo-205 Control shRNA; type: cell-based
# Experimental: as §1
# DU4475 WFS1 shRNA = assay: TCF reporter activity, DU4475 WFS1 shRNA; type: cell-based
# Experimental: as §1
# [3] = tested on: Colo-205 cells, shRNA targeting WFS1; assay: Cell viability, Colo-205 WFS1 shRNA; type: cell-based; conditions: for IC50: Colo-205 WFS1 shRNA; for increase in the IC50 in reducing cell viability on WFS1 knockdown: DU4475, Colo-205 and HepG2 cells, WFS1 shRNA vs control cells
# Experimental: as §1
# Colo-205 WFS1 shRNA = assay: TCF reporter activity, Colo-205 WFS1 shRNA; type: cell-based
# Experimental: as §1
# [4] = tested on: global gene expression in HepG2 cells; assay: Global gene expression changes in HepG2 vs WFS1 depleted cells; type: cell-based; conditions: HepG2, 6 hours of exposure
# Text: (§2) In contrast WFS1 depletion had no effect on thapsigargin induced changes in global gene expression (FIG. 7.)
# DU4475 Control shRNA = assay: TCF reporter activity, DU4475 Control shRNA; type: cell-based
# Experimental: as §1
# [5] = tested on: HepG2 cells, shRNA targeting WFS1; assay: Cell viability, HepG2 WFS1 shRNA; type: cell-based
# Experimental: as §1
# [6] = tested on: Colo-205 cells, non-targeting control shRNA; assay: Cell viability, Colo-205 control shRNA; type: cell-based
# Experimental: as §1
# [7] = tested on: ER stress marker proteins XBP1(s) and ATF4; assay: ER stress marker immunoblot in parental HepG2 vs WFS1 KO cells; type: cell-based; conditions: 6 hours, immunoblotting
# Text: as §2
# [8] = tested on: tumor xenografts derived from multiple cancer types; assay: In vivo efficacy of Compound 136 in various tumor xenografts; parameters: species or system SCID or nude mice; key to tumor response (regression class): CR: complete regression (majority response on treatment is that tumors become undetectable); PR: partial regression (majority response on treatment is that tumors shrink by at least 330%)
# Experimental: Female immune deficient mice (Charles River, 4-6 wks age) were anesthetized with Ketamine-Xylazine (140 mg/kg-14 mg/kg ip) and shaved. Puralube eye ointment was applied to the eyes to prevent desiccation of the corneas. Betadine and 70% ethanol was applied to the shaved location to sterilize the skin at the location of the incision. The animals were placed in a biosafety cabinet for the duration of the surgery. Using scissors, an 8 to 10 mm incision was made in the lateral flank of the skin. A tumor fragment weighing between 50 and 150 mg was placed under the skin at the incision site using forceps, and staples were used to close the incision. The staples were removed 5 to 7 days after surgery. Starting approximately two weeks after implantation, animals were weighed, and tumors were measured using caliper twice weekly. Tumor volume was calculated using the formula: volume=length×width^2×0.52.
# Compound administration began when xenografts reached approximately 100-300 mm3 and continued until control xenografts reached […] of the animal's body weight. Test compounds were administered orally by gastric gavage. Percent tumor growth inhibition (TG) was calculated on the indicated treatment day. Percent TGI is defined as: [1−(del T/del C)]×100%, where del T is the final minus initial average volumes of the treated group, and del C is the final minus initial average volumes of the control group. […] The tested compounds were administered orally. Vehicle control consisted of either 0.5% methylcellulose/0.1% sodium lauryl sulfate or 20% captisol. Tumor volumes were determined by caliper measurement twice a week.
# Tumors were engrafted in either SCID or nude mice. Compound 136 was administered orally once a day (QD) at 100 mg/kg. Vehicle control consisted of 0.5 methylcellulose/0.10% sodium lauryl sulfate. Tumor volumes were determined by caliper measurement twice a week. TG tumor growth inhibition at end of treatment. CR: complete regression (majority response on treatment is that tumors become undetectable), PR: partial regression (majority response on treatment is that tumors shrink by at least […]).
# [9] = tested on: DU4475 cells, non-targeting control shRNA; assay: Cell viability, DU4475 control shRNA; type: cell-based
# Experimental: as §1
# [10] = Bladder BXF 1036, 100 mg/kg QD oral, 21 days
# [11] = Kidney RXF 631, 100 mg/kg QD oral, 21 days
# [12] = Melanoma MEXF 1765, 100 mg/kg QD oral, 21 days
# [13] = Multiple myeloma NCI-H929, 100 mg/kg QD oral, 21 days
# [14] = Multiple myeloma OPM2, 100 mg/kg QD oral, 21 days
# [15] = Non-small cell lung LXFL 529, 100 mg/kg QD oral, 21 days
# [16] = Non-small cell lung LXFL 625, 100 mg/kg QD oral, 21 days
# [17] = Non-small cell lung LXFL 2207, 100 mg/kg QD oral, 21 days
# [18] = Non-small cell lung OD26749, 100 mg/kg QD oral, 21 days
# [19] = Non-small cell lung OD33966, 100 mg/kg QD oral, 21 days
compound,measurement,setting,value
"Cc1nc(NCc2cnn(Cc3ccc(C(F)(F)F)nc3)c2)nc2c1NC(=O)[C@H](C)N2C [Compound 136, (7S)-4,7,8-trimethyl-2-(((1-((6-(trifluoromethyl)pyridin-3-yl)methyl)-111-pyrazol-4-yl)methyl)amino)-7,8-dihydropteridin-6(5H)-one]",IC50,[1],0.26 µM
same,association between WFS1 gene expression and response in PDX models,lung PDX models,strong association
same,IC50,[2],6.1 µM
same,IC50,Colo-205 Control shRNA,0.1 µM
same,IC50,DU4475 WFS1 shRNA,0.7 µM
same,IC50,[3],> 9 µM
same,increase in the IC50 in reducing cell viability on WFS1 knockdown,[3],greater than 50 fold
same,IC50,Colo-205 WFS1 shRNA,0.7 µM
same,effect of WFS1 depletion on changes in global gene expression,[4],prevented Compound 136 from causing changes
same,IC50,DU4475 Control shRNA,0.09 µM
same,IC50,[5],2.2 µM
same,IC50,[6],0.05 µM
same,effect of WFS1 depletion on induction of XBP1(s) and ATF4,[7],prevents the induction
same,% TGI,[8]; [10],> 100%
same,Body weight change at end of treatment,[8]; [10],+5.5%
same,tumor response (regression class),[8]; [10],PR
same,% TGI,"[8]; Breast DU4475, 100 mg/kg QD oral, 14 days",99%
same,% TGI,[8]; [11],89%
same,Body weight change at end of treatment,[8]; [11],+6.2%
same,% TGI,[8]; [12],> 100%
same,Body weight change at end of treatment,[8]; [12],+9.8%
same,tumor response (regression class),[8]; [12],CR
same,% TGI,[8]; [13],> 100%
same,Body weight change at end of treatment,[8]; [13],+1.8%
same,tumor response (regression class),[8]; [13],CR
same,% TGI,[8]; [14],> 100%
same,Body weight change at end of treatment,[8]; [14],−0.9%
same,tumor response (regression class),[8]; [14],CR
same,% TGI,[8]; [15],> 100%
same,Body weight change at end of treatment,[8]; [15],+5.5%
same,tumor response (regression class),[8]; [15],CR
same,% TGI,[8]; [16],> 100%
same,Body weight change at end of treatment,[8]; [16],+3.7%
same,tumor response (regression class),[8]; [16],CR
same,% TGI,[8]; [17],> 100%
same,Body weight change at end of treatment,[8]; [17],+1.5%
same,tumor response (regression class),[8]; [17],PR
same,% TGI,[8]; [18],> 100%
same,Body weight change at end of treatment,[8]; [18],−0.1%
same,tumor response (regression class),[8]; [18],CR
same,% TGI,[8]; [19],> 100%
same,Body weight change at end of treatment,[8]; [19],+4.5%
same,tumor response (regression class),[8]; [19],PR
same,growth of tumor xenografts,"[8]; orally once a day (QD) at 100 mg/kg, SCID or nude mice",inhibits growth of tumor xenografts derived from multiple cancer types
same,IC50,[9],0.08 µM
"Cc1nc(N[C@H]2C[C@H](Oc3cc(F)c(F)c(F)c3)C2)nc2c1N(C)C(=O)[C@H](C)N2C [Compound 253, (7S)-4,5,7,8-tetramethyl-2-((trans-3-(3,4,5-trifluorophenoxy)cyclobutyl)amino)-7,8-dihydropteridin-6(5H)-one]",IC50,[1]; Homo sapiens,0.2 µM
same,IC50,"[2]; Homo sapiens, DU-4475",7.8 µM
same,IC50,Colo-205 Control shRNA; Homo sapiens,0.2 µM
same,IC50,"DU4475 WFS1 shRNA; Homo sapiens, DU-4475",1 µM
same,increase in the IC50 in reducing cell viability on WFS1 knockdown,[3],greater than 50 fold
same,IC50,[3]; Homo sapiens,> 9 µM
same,IC50,Colo-205 WFS1 shRNA; Homo sapiens,1.5 µM
same,IC50,"DU4475 Control shRNA; Homo sapiens, DU-4475",0.2 µM
same,IC50,[5]; Homo sapiens,17 µM
same,IC50,[6]; Homo sapiens,0.14 µM
same,IC50,"[9]; Homo sapiens, DU-4475",0.1 µM
